Like-named read-outs stand apart in the source and are kept apart here.
What was measured:
[1] = target: T1, KIND1 (Homo sapiens, UniProt Q08AE8); assay: FP competition assay with FITC-labeled FSI peptide, KIND1; type: binding; details: 2.44-2500 μM, 1.17 μM KIND1
T1 construct: His6 (N, cleaved yes); made in house; host or cells: E. coli BL21 (DE3)
Experimental: (§1) The probe was diluted in the buffer assay (25 mM Tris, pH 7.8, 100 mM NaCl, 2 mM DTT) and added to the preplated mixtures of protein/fragment solutions. […] Each experiment was performed in triplicate with four technical replications.
(§2) Establishment of fluorescence polarization assay
(§3) The establishment of the fluorescence polarization assay was done according to protocols […]
(§4) In the first step, the affinity of the fluorescently labelled reporter peptide (FSI-peptide, FITC- […]
(§5) concentrations of KIND1 or KIND2 domains. This yielded dose-response curves that allow us to calculate the Kd of FSI-peptide.
(§6) In the next step, the working concentration of the proteins was calculated. Typically, the concentration should be in a dynamic range (0.5-0.8). For calculations, the following equation f0 = (P − Pmin)/(Pmax − Pmin)
(§7) P – fluorescence polarization in the dynamic range (0.5 -0.8) , Pmin – average minimal fluorescence polarization, Pmax – average maximal fluorescence polarization,
(§8) Taking into account Kd values for the reporter peptide, the working concentration of the proteins were calculated as follows:
(§9) c = Kd(P − Pmin)/(Pmax − P) […]

[2] = target: T1, KIND1; assay: Binding to KIND1 (method not given)
[3] = target: T2, KIND2 (Homo sapiens, UniProt Q8WWL2); assay: Differential scanning fluorimetry (DSF) thermal shift, KIND2
T2 sequence (Q8WWL2 18-207): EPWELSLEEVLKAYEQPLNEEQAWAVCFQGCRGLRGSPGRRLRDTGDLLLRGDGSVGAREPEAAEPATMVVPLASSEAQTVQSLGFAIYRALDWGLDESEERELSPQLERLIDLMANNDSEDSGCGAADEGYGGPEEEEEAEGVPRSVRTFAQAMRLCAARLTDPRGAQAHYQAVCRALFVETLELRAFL

[4] = target: T2, KIND2; assay: FP competition assay with FITC-labeled FSI peptide, KIND2; type: binding; set-up: His6 (N, cleaved yes); made in house; host or cells: E. coli BL21 (DE3); details: for KIND2/FSI inhibitory activity in words: FP assay; for IC50: FP competition
Experimental: as §1, §2, §3, §4, §5, §6, §7, §8, §9

[5] = target: T1, KIND1; assay: Differential scanning fluorimetry (DSF) thermal shift, KIND1; type: binding; details: 1 mM fragment, 2% DMSO
[6] = 2.44-2500 μM, 2.49 μM KIND2, read-out: KIND2 IC50

T1 sequence (Q08AE8 36-236): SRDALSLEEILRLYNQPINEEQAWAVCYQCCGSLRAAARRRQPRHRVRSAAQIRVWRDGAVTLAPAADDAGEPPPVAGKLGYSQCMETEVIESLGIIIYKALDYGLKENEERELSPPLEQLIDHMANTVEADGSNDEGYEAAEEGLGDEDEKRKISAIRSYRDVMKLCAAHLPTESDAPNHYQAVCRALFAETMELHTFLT

| SMILES | IC50 [1] [mM] | IC50 [4, 6] [mM] | ΔTm at 1000 µM ([3]; read-out: ΔTm) [°C] | IC50 ([4]; Table 2, KIND2, read-out: IC50) [mM] | further results |
| --- | --- | --- | --- | --- | --- |
| NCCNc1ccnc2cc(Cl)ccc12 [F408, N^1-(7-Chloroquinolin-4-yl)ethane-1,2-diamine] | > 2.5 | – | – | – | binding to KIND1 [2]: did not bind |
| NCCCNc1ccnc2cc(Cl)ccc12 [F409] | > 2.5 | – | – | – | – |
| OCCCNc1ccnc2cc(Cl)ccc12 [F410] | > 2.5 | > 2.5 | – | – | ΔTm at 1000 µM ([3]; read-out: KIND2 ΔTm): -0.5 °C; KIND2/FSI inhibitory activity in words [4]: complete loss in activity; ΔTm at 1000 µM [5]: -0.4 °C |
| CN(C)CCCNc1ccnc2cc(Cl)ccc12 [F666] | > 2.5 | – | – | – | – |
| NCCCCNc1ccnc2cc(Cl)ccc12 [F667] | > 2.5 | – | – | – | – |
| Nc1ccnc2cc(Cl)ccc12 [F668] | > 2.5 | > 2.5 | – | – | ΔTm at 1000 µM ([3]; read-out: KIND2 ΔTm): -1 °C; ΔTm at 1000 µM [5]: -0.4 °C |
| Clc1ccc2c(NCCCN3CCOCC3)ccnc2c1 [F669] | > 2.5 | > 2.5 | – | – | ΔTm at 1000 µM ([3]; read-out: KIND2 ΔTm): -1 °C; KIND2/FSI inhibitory activity in words [4]: complete drop in potency; ΔTm at 1000 µM [5]: -0.5 °C |
| Clc1ccc2c(N3CCNCC3)ccnc2c1 [F671] | > 2.5 | > 2.5 | – | – | ΔTm at 1000 µM ([3]; read-out: KIND2 ΔTm): -2 °C; KIND2/FSI inhibitory activity in words [4]: complete drop in potency; ΔTm at 1000 µM [5]: -1 °C |
| OCCNc1ccnc2cc(Cl)ccc12 [compound 1, 2-((7-Chloroquinolin-4-yl)amino)ethan-1-ol] | > 2.5 | > 2.5 | – | – | – |
| CN(C)CCNc1ccnc2cc(Cl)ccc12 [compound 2, N^1-(7-Chloroquinolin-4-yl)-N^2,N^2-dimethylethane-1,2-diamine] | > 2.5 | > 2.5 | – | – | KIND2/FSI inhibitory activity in words [4]: loss of potency |
| N[C@H]1CCN(c2ccnc3cc(Cl)ccc23)C1 [compound 3, (S)-1-(7-Chloroquinolin-4-yl)pyrrolidin-3-amine] | > 2.5 | > 2.5 | – | – | – |
| N[C@@H]1CCN(c2ccnc3cc(Cl)ccc23)C1 [compound 4, (R)-1-(7-Chloroquinolin-4-yl)pyrrolidin-3-amine] | > 2.5 | > 2.5 | – | – | – |
| N[C@H]1CCCN(c2ccnc3cc(Cl)ccc23)C1 [compound 5, (3S)-1-(7-Chloroquinolin-4-yl)piperidin-3-amine] | > 2.5 | > 2.5 | – | – | – |
| N[C@@H]1CCCN(c2ccnc3cc(Cl)ccc23)C1 [compound 6, (3R)-1-(7-Chloroquinolin-4-yl)piperidin-3-amine] | > 2.5 | > 2.5 | – | – | – |
| Clc1ccc2c(N[C@H]3CCCNC3)ccnc2c1 [compound 7, (S)-7-Chloro-N-(piperidin-3-yl)quinolin-4-amine] | > 2.5 | > 2.5 | – | – | – |
| Clc1ccc2c(N[C@@H]3CCCNC3)ccnc2c1 [compound 8, (R)-7-Chloro-N-(piperidin-3-yl)quinolin-4-amine] | > 2.5 | > 2.5 | – | – | – |
| NCCNc1ccnc2cc(C(F)(F)F)ccc12 [compound 9, N^1-(7-(Trifluoromethyl)quinolin-4-yl)ethane-1,2-diamine] | – | – | -0.4 | > 2.5 | – |
| Cc1ccc2c(NCCN)ccnc2c1 [compound 10, N^1-(7-Methylquinolin-4-yl)ethane-1,2-diamine] | – | – | 2 | > 2.5 | – |
| NCCNc1ccnc2cc(Br)ccc12 [compound 11, N^1-(7-Bromoquinolin-4-yl)ethane-1,2-diamine] | – | – | 1.2 | > 2.5 | – |
| NCCNc1ccnc2cc(Oc3ccccc3)ccc12 [compound 15, N^1-(7-Phenoxyquinolin-4-yl)ethane-1,2-diamine] | – | – | -0.1 | > 2.5 | – |
| NCCNc1ccnc2cc(OCc3ccccc3)ccc12 [compound 16, N^1-[7-(Benzyloxy)quinolin-4-yl]ethane-1,2-diamine] | – | – | 0 | > 2.5 | – |
| NCCNc1ccnc2c(Cl)cccc12 [compound 17, N^1-(8-Chloroquinolin-4-yl)ethane-1,2-diamine] | – | – | 0.8 | > 2.5 | KIND2/FSI inhibitory activity in words [4]: complete loss of activity |
| NCCNc1ccnc2c(F)cccc12 [compound 18, N^1-(8-Fluoroquinolin-4-yl)ethane-1,2-diamine] | – | – | 0.8 | > 2.5 | KIND2/FSI inhibitory activity in words [4]: complete loss of activity |

Source: publication PMC10726347, “Discovery of Inhibitory Fragments That Selectively Target Spire2–FMN2 Interaction” (Journal of Medicinal Chemistry, 2023)
